These results are taken from US20260158008A1, “POLYMORPHS OF THE MESYLATE SALT OF LINAPRAZAN GLURATE” (Cinclus Pharma Holding AB (Publ), priority 2021, published 2026).

Molecules are shown by their SMILES. Like-named read-outs stand apart in the source and are kept apart here. Where only a bound is given, the exact number is not on record here.

Series [1] has as its system gastric acid production. Particulars: cited from earlier work.
The nature of series [2]: Plasma concentration after oral administration of linaprazan glurate. The series is classed as in vivo, human.
Series [3] concerns gastric acid production. The conditions noted are these: cited from earlier work. The source holds these as a separate data set.
The nature of series [4]: Dynamic vapour sorption (DVS) analysis, hygroscopicity / water content. The series is classed as physicochemical. As for the experimental part: Analyses were performed on an SMS DVS-1 instrument.
Method 1: A few mg of the substance was added into an Al pan and exposed to stepwise RH changes during two identical consecutive cycles according to 0-10-20-30-40-50-60-70-80-90-80-70-60-50-40-30-20-10-0% RH using open loop mode. The experiments were performed using a gas flow rate of 200 ml/min and at 25° C. The dm/dt criteria applied were 0.001 weight-%/min during a 5-minutes window, with a maximum allowed time of 360 minutes and a minimum allowed time of 10 minutes for all steps, except for the first stage which was set to a 12-hours fix time.
(§1) Method 2: A few mg of the substance was added into an Al pan and exposed to stepwise RH changes during two identical consecutive cycles according to 0-10-20-30-40-50-60-70-80-90-80-70-60-50-40-30-20-10-0% RH using open loop mode. The experiments were performed using a gas flow rate of 200 ml/min and at 25° C. The dm/dt criteria applied were 0.001 weight-%/min during a 5-minutes window, with a maximum allowed time of 360 minutes and a minimum allowed time of 10 minutes for all steps.
Method 3: A few mg of the substance was added into an Al pan and exposed to stepwise RH changes during two identical consecutive cycles according to 0-10-20-30-40-50-60-70-80-90-80-70-60-50-40-30-20-10-0% RH using open loop mode. The experiments were performed using a gas flow rate of 200 ml/min and at 25° C. The dm/dt criteria applied were 0.001 weight-%/min during a 5-minutes window, with a maximum allowed time of 360 minutes and a minimum allowed time of 10 minutes for all steps, except for the first stage which was set to a 6-hours fix time.
The hygroscopicity of sample 1 of Form A (obtained from a slurry in 2-propanol) was investigated using method 1. […]
For sample 2 of Form A (obtained from a slurry in acetone), a TGA-dried sample was investigated using method 2. […] In the second cycle, “pure” water absorption and desorption is recorded. […]

The conditions of series [5]: cited from earlier work.
The conditions of series [6]: up to 24 hours.
Procedure: The solubility of Form A in Fed State Simulated Gastric Fluid (FEDGAS) mid stage, second version of Fasted State Simulated Intestinal Fluid (FaSSIF-V2) and second version of Fed State Simulated Intestinal Fluid (FeSSIF-V2) was studied.
To 90 mL of Milli Q water were added 139 mg of NaOH, 222 mg of maleic acid and 401 mg of NaCl and the resulting mixture was stirred until fully dissolved. The pH was adjusted to 6.5 with 1 M HCl and 1 M NaOH, and made up to 100 mL with Milli Q water. 179 mg of FaSSIF-V2 (Biorelevant, batch V2FAS-1020-A) was mixed with the prepared 100 ml of buffer, stirred until fully dissolved and equilibrated at RT for 1 hour before use.
To 90 ml of Milli Q water were added 327 mg of NaOH, 639 mg of maleic acid and 733 mg of NaCl and the resulting mixture was stirred until fully dissolved. The pH was adjusted to 5.8 with 1 M HCl and 1 M NaOH, and made up to 100 mL with Milli Q water. 976 mg of FeSSIF-V2 (Biorelevant, batch V2FES-1020-A) was mixed with the prepared 100 ml of buffer, stirred until fully dissolved and equilibrated at RT for 1 hour before use. […]
Saturated solutions were prepared in 4 ml vials by adding fixed weights (excess amounts) of Form A to 2 mL of each of the different buffer solutions. […] Concentrations were calculated from a calibration curve based on 7 calibration standards (stock solutions of 100 and 250 μg/mL, and serial dilutions thereof).
The nature of series [7]: XRPD check of solid form after TGA or DVS. The series is classed as physicochemical. As for the experimental part: Analyses were performed on a PanAlytical X'Pert Pro diffractometer equipped with a Cu-anode (45 kV, 40 mA), a Kα-1 Johansson monochromator (1.540598 Å) and a Pixcel detector. The 2-theta range was 2-35°, using a step size of 0.013° and a scan speed of 0.10°/s (“6 minutes scan”) or 0.03°/s (“20 minutes scan”). Slow spinning sample holders were used. The samples were smeared out on zero background wafers of Si, producing a flat powdered surface. The measurements were performed using a programmable incident divergency slit.
Method 1: A few mg of sample was gently charged into open Pt-pans and analysed by weight in a flow of dry nitrogen gas (20 mL/min), to ensure an inert atmosphere, from 25 to 140° C. using a continuous scan speed of 10° C./min, followed by an isothermal step at 140° C. for 60 minutes (ended manually if the drying process was completed before 60 minutes).
as §1

In the case of `Cc1cccc(C)c1CNc1cc(C(=O)NCCO)cn2c(C)c(C)nc12` [linaprazan], in the series with gastric acid production [1] (Phase I and II studies), the onset of action entry was “fast onset of action and full effect at first dose”; the tolerability result is “well tolerated”. In addition, in the series with gastric acid production [1] (in vivo), the “duration of acid inhibition” value is “too short duration of acid inhibition” and the elimination result is “quickly eliminated from the body”. The concentration at 22 h in series [2] (human, plasma, oral, after 22 hours, estimated from Phase I studies of linaprazan glurate, read-out: minimal plasma concentration (Cmin) of linaprazan required to maintain intra-gastric pH above 4 for 24 hours) is no less than 240 nM.
Turning to `Cc1cccc(C)c1CNc1cc(C(=O)NCCOC(=O)CCCC(=O)O)cn2c(C)c(C)nc12` [linaprazan glurate, 5-{2-[({8-[(2,6-dimethylbenzyl)amino]-2,3-dimethylimidazo[1,2-a]pyridine-6-yl}carbonyl)-amino]ethoxy}-5-oxopentanoic acid], in the series on gastric acid production [3] (human, in vivo), the “control of gastric acid production compared to linaprazan” value is “total control of the gastric acid production for a longer time” and the “half-life in the body compared to linaprazan” value is “longer half-life in the body”. Also, in the series on gastric acid production [3] (single dose, clinical Phase I study), the “time for which intragastric acidity is maintained above pH 4” value is 24 hours. For the same compound, in series [2] (in vivo), the “metabolism following absorption into the blood stream” value was “quickly metabolized into linaprazan”; the plasma concentration result is “only very low and difficult to determine”.
Take `CS(=O)(=O)O.Cc1cccc(C)c1CNc1cc(C(=O)NCCOC(=O)CCCC(=O)O)cn2c(C)c(C)nc12` [Form B]: the water content result in series [4] (at 80% RH) is listed as “about 3.4%”.
In the case of `Cc1cccc(C)c1CNc1cc(C(=O)NCCOC(=O)CCCC(=O)O)cn2c(C)c(C)nc12` [Form A (free base)], the solubility in water entry in series [5] (pH 1) was “only slightly soluble”; in series [5] (pH 6.8), “practically insoluble”.
Consider `CS(=O)(=O)O.Cc1cccc(C)c1CNc1cc(C(=O)NCCOC(=O)CCCC(=O)O)cn2c(C)c(C)nc12` [Form A], for which, in series [6] (FEDGAS mid stage pH 4.5 vs FaSSIF-V2 pH 6.5, 37° C.), the “solubility in FEDGAS relative to FaSSIF-V2” value is “about 20 times higher”. In series [6] (FEDGAS mid stage pH 4.5 vs FeSSIF-V2 pH 5.8, 37° C.), the “solubility in FEDGAS relative to FeSSIF-V2” value was “about 7 times higher”. Moreover, the “solid form after the TGA experiment (XRPD)” value in series [7] (after heating 25 to 140° C., TGA method 1) is recorded as “this form remained”. For the same compound, the “solid form after the DVS-analysis (XRPD)” value in series [7] (after two cycles 0-90% RH, 25° C.) is “this form remained”. The “water uptake with relative humidity” value in series [4] (0 to 90% RH, 25° C.) is on record as “increases almost linearly with increasing relative humidity”. In addition, the “stability at relative humidity” value in series [4] (relative humidity up to 90%, 25° C.) is reported as “stable”.
